Assay results taken from ChEMBL document CHEMBL3885881, “DrugMatrix”.

Species: Rattus norvegicus
Test: DrugMatrix - Regimen: Daily Repeat
Format: toxicity, organism-based, Sprague-Dawley
Design: regimen Daily Repeat, gender Male, age 6-8 weeks
Conditions: in vivo, po, route oral GAVAGE, vehicle 100 % SALINE; for ABSOLUTE BASOPHIL / ABSOLUTE EOSINOPHIL / ABSOLUTE LYMPHOCYTE / ABSOLUTE MONOCYTE / ABSOLUTE SEGMENTED NEUTROPHIL / BASOPHIL / EOSINOPHIL / ERYTHROCYTE COUNT / HEMOGLOBIN / LEUKOCYTE COUNT / LYMPHOCYTE / MEAN CORPUSCULAR HEMOGLOBIN / MEAN CORPUSCULAR HEMOGLOBIN CONCENTRATION / MEAN CORPUSCULAR VOLUME / MONOCYTE / NEUTROPHIL / NUCLEATED RED BLOOD CELLS / PLATELET COUNT / HEMATOCRIT: tissue Blood
[1] = 200 mg/kg, 120 h, dose level Low, time 5 day
[2] = 200 mg/kg, 120 h, tissue Plasma, dose level Low, time 5 day
[3] = 600 mg/kg, 72 h, dose level High, time 3 day
[4] = 600 mg/kg, 72 h, tissue Plasma, dose level High, time 3 day
[5] = 600 mg/kg, 120 h, dose level High, time 5 day
[6] = 600 mg/kg, 120 h, tissue Plasma, dose level High, time 5 day

Substance: LEAD(IV) ACETATE
- ABSOLUTE BASOPHIL [1]: 0 CELLS/uL
- ABSOLUTE EOSINOPHIL [1]: 0 CELLS/uL
- ABSOLUTE LYMPHOCYTE [1]: 11837.33 CELLS/uL
- ABSOLUTE MONOCYTE [1]: 82.67 CELLS/uL
- ABSOLUTE SEGMENTED NEUTROPHIL [1]: 680 CELLS/uL
- BASOPHIL [1]: 0%
- EOSINOPHIL [1]: 0%
- ERYTHROCYTE COUNT [1]: 5.76 x10E6/uL
- HEMOGLOBIN [1]: 13.8 G/DL
- LEUKOCYTE COUNT [1]: 12.6 x10E3/uL
- LYMPHOCYTE [1]: 93.67%
- MEAN CORPUSCULAR HEMOGLOBIN [1]: 23.93 pg
- MEAN CORPUSCULAR HEMOGLOBIN CONCENTRATION [1]: 39.23 G/DL
- MEAN CORPUSCULAR VOLUME [1]: 61.03 fL
- MONOCYTE [1]: 0.67%
- NEUTROPHIL [1]: 5.67%
- NUCLEATED RED BLOOD CELLS [1]: 0.33 /100WBC
- PLATELET COUNT [1]: 1075 x10E3/uL
- ALANINE AMINOTRANSFERASE [2]: 43.33 u/L
- ALKALINE PHOSPHATASE [2]: 339 u/L
- ASPARTATE AMINOTRANSFERASE [2]: 80 u/L
- BLOOD UREA NITROGEN [2]: 13.33 mg/dL
- CARBON DIOXIDE [2]: 33 mmol/L
- CHLORIDE [2]: 99 MEQ/L
- CHOLESTEROL [2]: 74.67 mg/dL
- CREATINE PHOSPHOKINASE [2]: 263.33 u/L
- CREATININE [2]: 0.31 mg/dL
- GLUCOSE [2]: 134 mg/dL
- LACTATE DEHYDROGENASE [2]: 132.67 u/L
- LIPASE [2]: 14.33 u/L
- PHOSPHORUS [2]: 11.33 mg/dL
- POTASSIUM [2]: 5.88 MEQ/L
- SODIUM [2]: 146.7 MEQ/L
- TOTAL BILIRUBIN [2]: 0.17 mg/dL
- TOTAL PROTEIN [2]: 6.4 G/DL
- URIC ACID [2]: 0.57 mg/dL
- ABSOLUTE BASOPHIL [3]: 0 CELLS/uL
- ABSOLUTE EOSINOPHIL [3]: 0 CELLS/uL
- ABSOLUTE LYMPHOCYTE [3]: 6951.33 CELLS/uL
- ABSOLUTE MONOCYTE [3]: 49.33 CELLS/uL
- ABSOLUTE SEGMENTED NEUTROPHIL [3]: 532.67 CELLS/uL
- BASOPHIL [3]: 0%
- EOSINOPHIL [3]: 0%
- ERYTHROCYTE COUNT [3]: 5.19 x10E6/uL
- HEMATOCRIT [3]: 32%
- HEMOGLOBIN [3]: 12.7 G/DL
- LEUKOCYTE COUNT [3]: 7.53 x10E3/uL
- LYMPHOCYTE [3]: 92%
- MEAN CORPUSCULAR HEMOGLOBIN CONCENTRATION [3]: 39.7 G/DL
- MONOCYTE [3]: 0.67%
- NEUTROPHIL [3]: 7.33%
- NUCLEATED RED BLOOD CELLS [3]: 0 /100WBC
- PLATELET COUNT [3]: 1337.33 x10E3/uL
- ALANINE AMINOTRANSFERASE [4]: 41.67 u/L
- ALBUMIN [4]: 4 G/DL
- ALKALINE PHOSPHATASE [4]: 253 u/L
- ASPARTATE AMINOTRANSFERASE [4]: 83 u/L
- BLOOD UREA NITROGEN [4]: 10.33 mg/dL
- CARBON DIOXIDE [4]: 27 mmol/L
- CHOLESTEROL [4]: 81.33 mg/dL
- CREATINE PHOSPHOKINASE [4]: 396 u/L
- CREATININE [4]: 0.38 mg/dL
- LACTATE DEHYDROGENASE [4]: 126.67 u/L
- LIPASE [4]: 11.33 u/L
- POTASSIUM [4]: 5.16 MEQ/L
- TOTAL BILIRUBIN [4]: 0.1 mg/dL
- URIC ACID [4]: 0.83 mg/dL
- ABSOLUTE BASOPHIL [5]: 0 CELLS/uL
- ABSOLUTE EOSINOPHIL [5]: 0 CELLS/uL
- ABSOLUTE LYMPHOCYTE [5]: 13230 CELLS/uL
- ABSOLUTE MONOCYTE [5]: 139 CELLS/uL
- ABSOLUTE SEGMENTED NEUTROPHIL [5]: 1031 CELLS/uL
- BASOPHIL [5]: 0%
- EOSINOPHIL [5]: 0%
- ERYTHROCYTE COUNT [5]: 6.04 x10E6/uL
- HEMATOCRIT [5]: 35.43%
- HEMOGLOBIN [5]: 13.83 G/DL
- LEUKOCYTE COUNT [5]: 14.4 x10E3/uL
- LYMPHOCYTE [5]: 92%
- MEAN CORPUSCULAR HEMOGLOBIN [5]: 22.97 pg
- MEAN CORPUSCULAR HEMOGLOBIN CONCENTRATION [5]: 39.07 G/DL
- MEAN CORPUSCULAR VOLUME [5]: 58.67 fL
- MONOCYTE [5]: 1%
- NEUTROPHIL [5]: 7%
- NUCLEATED RED BLOOD CELLS [5]: 0.33 /100WBC
- PLATELET COUNT [5]: 1226 x10E3/uL
- ALANINE AMINOTRANSFERASE [6]: 46.33 u/L
- ALKALINE PHOSPHATASE [6]: 257 u/L
- ASPARTATE AMINOTRANSFERASE [6]: 82 u/L
- BLOOD UREA NITROGEN [6]: 11.67 mg/dL
- CARBON DIOXIDE [6]: 35 mmol/L
- CHLORIDE [6]: 97.67 MEQ/L
- CHOLESTEROL [6]: 86 mg/dL
- CREATINE PHOSPHOKINASE [6]: 294 u/L
- CREATININE [6]: 0.19 mg/dL
- LACTATE DEHYDROGENASE [6]: 99 u/L
- PHOSPHORUS [6]: 10.3 mg/dL
- POTASSIUM [6]: 5.89 MEQ/L
- TOTAL BILIRUBIN [6]: 0.13 mg/dL
- TOTAL PROTEIN [6]: 6 G/DL
- URIC ACID [6]: 0.7 mg/dL
